Source: ChEMBL document CHEMBL4680368, “Myeloid Cell Leukemia-1 Inhibitors as Emerging Cancer Treatment” (ACS Med Chem Lett, 2021)

Test system: not listed separately
Test: Induction of apoptosis in human MOLP8 cells assessed as increase in caspase 3/7 activation incubated for 2 hrs by luminometric caspase-glo 3/7 assay
Format: functional, cell-based
Settings: MOLP-8, 2 h

Q: Which AC50 does the source give for `C[C@@H]1[C@@H](C)C/C=C(\F)[C@H](CO)N2CC[C@H]2CN2C[C@@]3(CCCc4cc(Cl)ccc43)COc3ccc(cc32)C(=O)NS1(=O)=O` here?
A: 144 nM

Q: For `C[C@@H]1[C@@H](C)C/C=C(\F)[C@H](COc2ccccn2)N2CC[C@H]2CN2C[C@@]3(CCCc4cc(Cl)ccc43)COc3ccc(cc32)C(=O)NS1(=O)=O`, which AC50 is on record?
A: 1490 nM

Q: Which AC50 does the source give for `C[C@@H]1[C@@H](C)C/C=C(\F)CN2CC[C@H]2CN2C[C@@]3(CCCc4cc(Cl)ccc43)COc3ccc(cc32)C(=O)NS1(=O)=O` here?
A: 692 nM

Q: For `COC[C@H]1/C(F)=C/C[C@H](C)[C@@H](C)S(=O)(=O)NC(=O)c2ccc3c(c2)N(C[C@@H]2CCN21)C[C@@]1(CCCc2cc(Cl)ccc21)CO3`, which AC50 is on record?
A: 181 nM

Q: Which AC50 does the source give for `C[C@@H]1[C@@H](C)C/C=C(\F)[C@H](CN2CCN3CCOC[C@@H]3C2)N2CC[C@H]2CN2C[C@@]3(CCCc4cc(Cl)ccc43)COc3ccc(cc32)C(=O)NS1(=O)=O` here?
A: 120 nM

Q: With `C[C@@H]1[C@@H](C)C/C=C(\F)[C@H](COCC(=O)O)N2CC[C@H]2CN2C[C@@]3(CCCc4cc(Cl)ccc43)COc3ccc(cc32)C(=O)NS1(=O)=O` as the compound, how does the AC50 read?
A: 5990 nM

Q: Which AC50 does the source give for `COCCOCC1(COCCOC)/C(F)=C/C[C@H](C)[C@@H](C)S(=O)(=O)NC(=O)c2ccc3c(c2)N(C[C@@H]2CCN21)C[C@@]1(CCCc2cc(Cl)ccc21)CO3` here?
A: 152 nM

Q: With `C[C@@H]1[C@@H](C)C/C=C(\F)[C@H](COCCCN2CCOCC2)N2CC[C@H]2CN2C[C@@]3(CCCc4cc(Cl)ccc43)COc3ccc(cc32)C(=O)NS1(=O)=O` as the compound, how does the AC50 read?
A: 231 nM

Q: For `C[C@@H]1[C@@H](C)C/C=C(\F)C(CO)(CO)N2CC[C@H]2CN2C[C@@]3(CCCc4cc(Cl)ccc43)COc3ccc(cc32)C(=O)NS1(=O)=O`, which AC50 is on record?
A: 2390 nM

Q: For `COCCCOC[C@H]1/C(F)=C/C[C@H](C)[C@@H](C)S(=O)(=O)NC(=O)c2ccc3c(c2)N(C[C@@H]2CCN21)C[C@@]1(CCCc2cc(Cl)ccc21)CO3`, which AC50 is on record?
A: 274 nM

Biological target: Induced myeloid leukemia cell differentiation protein Mcl-1 (Homo sapiens, UniProt Q07820)
Test: Inhibition of Terbium-labeled BIM BH3 peptide binding to MCL1 (unknown origin) incubated for 60 mins by HTRF assay
Settings: not given

Induced myeloid leukemia cell differentiation protein Mcl-1, sequence (Q07820 whole entry): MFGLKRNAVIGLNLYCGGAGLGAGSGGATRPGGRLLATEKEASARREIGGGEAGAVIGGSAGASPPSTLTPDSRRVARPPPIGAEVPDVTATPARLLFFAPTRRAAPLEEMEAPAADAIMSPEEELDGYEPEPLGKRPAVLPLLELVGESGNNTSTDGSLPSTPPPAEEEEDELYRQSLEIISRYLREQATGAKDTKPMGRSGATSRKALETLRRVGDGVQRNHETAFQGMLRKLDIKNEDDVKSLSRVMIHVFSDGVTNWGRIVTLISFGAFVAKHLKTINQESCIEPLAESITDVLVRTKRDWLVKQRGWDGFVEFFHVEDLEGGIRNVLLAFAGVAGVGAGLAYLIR

Q: With `C[C@@H]1[C@@H](C)C/C=C(\F)CN2CC[C@H]2CN2C[C@@]3(CCCc4cc(Cl)ccc43)COc3ccc(cc32)C(=O)NS1(=O)=O` as the compound, how does the Ki read?
A: 0.84 nM

Q: Which Ki does the source give for `COCCOCC1(COCCOC)/C(F)=C/C[C@H](C)[C@@H](C)S(=O)(=O)NC(=O)c2ccc3c(c2)N(C[C@@H]2CCN21)C[C@@]1(CCCc2cc(Cl)ccc21)CO3` here?
A: 0.25 nM
